Measurements from patent US20230355626A1, “INHIBITORS OF HUMAN IMMUNODEFICIENCY VIRUS REPLICATION” (VIIV HEALTHCARE UK (NO.5) LIMITED, priority 2020, published 2023).

How the values were obtained:
recombinant NL4-3 virus = test: HIV cell culture assay (antiviral activity, luciferase readout in infected MT-2 cells); format: cell-based; conditions: Human immunodeficiency virus 1, NL43, MT2
Procedure: HIV cell culture assay—MT-2 cells, 293T cells and the proviral DNA clone of NL4-3 virus were obtained from the NIH AIDS Research and Reference Reagent Program. MT-2 cells were propagated in RPMI 1640 media supplemented with 10% heat inactivated fetal bovine serum (FBS), 100 μg/ml penicillin G and up to 100 units/mL streptomycin. The 293T cells were propagated in DMEM media supplemented with 10% heat inactivated FBS, 100 μg/mL penicillin G and 100 μg/mL streptomycin. A recombinant NL4-3 proviral clone, in which a section of the nef gene was replaced with the Renilla luciferase gene, was used to make the reference virus used in these studies. The recombinant virus was prepared through transfection of the recombinant NL4-3 proviral clone into 293T cells using Transit-293 Transfection Reagent from Mirus Bio LLC (Madison, WI). Supernatant was harvested after 2-3 days and the amount of virus present was titered in MT-2 cells using luciferase enzyme activity as a marker by measuring luciferase enzyme activity. Luciferase was quantitated using the EnduRen Live Cell Substrate from Promega (Madison, WI). Antiviral activities of compounds toward the recombinant virus were quantified by measuring luciferase activity in MT-2 cells infected for 4-5 days with the recombinant virus in the presence of serial dilutions of the compound.
The 50% effective concentration (EC50) was calculated by using the exponential form of the median effect equation where (Fa)=1/[1+(ED50/drug conc.)m] (Johnson VA, Byington RT. Infectivity Assay. In Techniques in HIV Research. ed. Aldovini A, Walker BD. 71-76. New York: Stockton Press.1990). Curve fitting and analysis were performed with ActivityBase XE Runner software version 9.1.0.4 using model 203 (ID Business Solutions, LTD, Guildford, UK).

[1] = Compound cytotoxicity, XTT-based colorimetric assay; format: cell-based; conditions: human; uninfected MT2 cells, day 4, XTT assay
Procedure: Compound cytotoxicity and the corresponding CC50 values were determined using the same protocol as described in the antiviral assay except that uninfected cells were used. Cytotoxicity was assessed on day 4 in uninfected MT2 cells by using an XTT (2,3-bis[2-Methoxy-4-nitro-5-sulfophenyl]-2H-tetrazolium-5-carboxyanilide inner salt)-based colorimetric assay (Sigma-Aldrich, St Louis, Mo).

Row | SMILES | EC50 (recombinant NL4-3 virus) [pM] | CC50 at 4 day [1] [pM]
1 | Cn1nc(NS(C)(=O)=O)c2c(Cl)ccc(-n3c([C@H](Cc4cc(F)cc(F)c4)NC(=O)Cn4nc(C(F)F)c5c4C(F)(F)[C@@H]4C[C@H]54)nc4nc(OCC5(C(F)(F)F)CC5)ccc4c3=O)c21 (atropisomer, axis not shown; (P)) [Example 21, N-((S)-1-((3P)-3-(4-chloro-1-methyl-3-(methylsulfonamido)-1H-indazol-7-yl)-4-oxo-7-((1-(trifluoromethyl)cyclopropyl)methoxy)-3,4-dihydropyrido[2,3-d]pyrimidin-2-yl)-2-(3,5-difluorophenyl)ethyl)-2-((3bS,4aR)-3-(difluoromethyl)-5,5-difluoro-3b,4,4a,5-tetrahydro-1H-cyclopropa[3,4]cyclopenta[1,2-c]pyrazol-1-yl)acetamide] | 46 | > 500000
2 | Cn1nc(COc2ccc3c(=O)n(-c4ccc(Cl)c5c(NS(C)(=O)=O)nn(C)c45)c([C@H](Cc4cc(F)cc(F)c4)NC(=O)Cn4nc(C(F)F)c5c4C(F)(F)[C@@H]4C[C@H]54)nc3n2)cc1C(F)(F)F (atropisomer, axis not shown; (P)) [Example 13, N-((S)-1-((3P)-3-(4-chloro-1-methyl-3-(methylsulfonamido)-1H-indazol-7-yl)-7-((1-methyl-5-(trifluoromethyl)-1H-pyrazol-3-yl)methoxy)-4-oxo-3,4-dihydropyrido[2,3-d]pyrimidin-2-yl)-2-(3,5-difluorophenyl)ethyl)-2-((3bS,4aR)-3-(difluoromethyl)-5,5-difluoro-3b,4,4a,5-tetrahydro-1H-cyclopropa[3,4]cyclopenta[1,2-c]pyrazol-1-yl)acetamide] | 58 | > 100000
3 | CN(CCOc1ccc2c(=O)n(-c3ccc(Cl)c4c(NS(C)(=O)=O)nn(C)c34)c([C@H](Cc3cc(F)cc(F)c3)NC(=O)Cn3nc(C(F)F)c4c3C(F)(F)[C@@H]3C[C@H]43)nc2n1)S(C)(=O)=O (atropisomer, axis not shown; (P)) [Example 10, N-((S)-1-((3P)-3-(4-chloro-1-methyl-3-(methylsulfonamido)-1H-indazol-7-yl)-7-(2-(N-methylmethylsulfonamido)ethoxy)-4-oxo-3,4-dihydropyrido[2,3-d]pyrimidin-2-yl)-2-(3,5-difluorophenyl)ethyl)-2-((3bS,4aR)-3-(difluoromethyl)-5,5-difluoro-3b,4,4a,5-tetrahydro-1H-cyclopropa[3,4]cyclopenta[1,2-c]pyrazol-1-yl)acetamide] | 41 | > 500000
4 | Cn1nc(NS(C)(=O)=O)c2c(Cl)ccc(-n3c([C@H](Cc4cc(F)cc(F)c4)NC(=O)Cn4nc(C5CC5)c5c4C(F)(F)[C@@H]4C[C@H]54)nc4nc(OCC(F)(F)C(F)(F)F)ccc4c3=O)c21 (atropisomer, axis not shown; (P)) [Example 41, N-((S)-1-((3P, 3P)-3-(4-chloro-1-methyl-3-(methylsulfonamido)-1H-indazol-7-yl)-4-oxo-7-(2,2,3,3,3-pentafluoropropoxy)-3,4-dihydropyrido[2,3-d]pyrimidin-2-yl)-2-(3,5-difluorophenyl)ethyl)-2-((3bS,4aR)-3-cyclopropyl-5,5-difluoro-3b,4,4a,5-tetrahydro-1H-cyclopropa[3,4]cyclopenta[1,2-c]pyrazol-1-yl)acetamide] | 43 | > 100000
5 | Cn1nc(NS(C)(=O)=O)c2c(Cl)ccc(-n3c([C@H](Cc4cc(F)cc(F)c4)NC(=O)Cn4nc(C(F)F)c5c4C(F)(F)[C@@H]4C[C@H]54)nc4nc(OCc5cccc(C(F)(F)F)n5)ccc4c3=O)c21 (atropisomer, axis not shown; (P)) [Example 22, N-((S)-1-((3P)-3-(4-chloro-1-methyl-3-(methylsulfonamido)-1H-indazol-7-yl)-4-oxo-7-((6-(trifluoromethyl)pyridin-2-yl)methoxy)-3,4-dihydropyrido[2,3-d]pyrimidin-2-yl)-2-(3,5-difluorophenyl)ethyl)-2-((3bS,4aR)-3-(difluoromethyl)-5,5-difluoro-3b,4,4a,5-tetrahydro-1H-cyclopropa[3,4]cyclopenta[1,2-c]pyrazol-1-yl)acetamide] | 55 | > 100000
6 | Cn1nc(NS(C)(=O)=O)c2c(Cl)ccc(-n3c([C@H](Cc4cc(F)cc(F)c4)NC(=O)Cn4nc(C(F)F)c5c4C(F)(F)[C@@H]4C[C@H]54)nc4nc(OCCOC5CC5(F)F)ccc4c3=O)c21 (stereo partly drawn) [Example 34, N-((1S)-1-((3P,3P)-3-(4-chloro-1-methyl-3-(methylsulfonamido)-1H-indazol-7-yl)-7-(2-(2,2-difluorocyclopropoxy)ethoxy)-4-oxo-3,4-dihydropyrido[2,3-d]pyrimidin-2-yl)-2-(3,5-difluorophenyl)ethyl)-2-((3bS,4aR)-3-(difluoromethyl)-5,5-difluoro-3b,4,4a,5-tetrahydro-1H-cyclopropa[3,4]cyclopenta[1,2-c]pyrazol-1-yl)acetamide] | 35 | > 100000
7 | Cn1nccc1CCOc1ccc2c(=O)n(-c3ccc(Cl)c4c(NS(C)(=O)=O)nn(C)c34)c([C@H](Cc3cc(F)cc(F)c3)NC(=O)Cn3nc(C(F)F)c4c3C(F)(F)[C@@H]3C[C@H]43)nc2n1 (atropisomer, axis not shown; (P)) [Example 14, N-((R)-1-((3P,3P)-3-(4-chloro-1-methyl-3-(methylsulfonamido)-1H-indazol-7-yl)-7-(2-(1-methyl-1H-pyrazol-5-yl)ethoxy)-4-oxo-3,4-dihydropyrido[2,3-d]pyrimidin-2-yl)-2-(3,5-difluorophenyl)ethyl)-2-((3bS,4aR)-3-(difluoromethyl)-5,5-difluoro-3b,4,4a,5-tetrahydro-1H-cyclopropa[3,4]cyclopenta[1,2-c]pyrazol-1-yl)acetamide] | 61 | > 500000
8 | Cn1nc(NS(C)(=O)=O)c2c(Cl)ccc(-n3c([C@H](Cc4cc(F)cc(F)c4)NC(=O)Cn4nc(C(F)F)c5c4C(F)(F)[C@@H]4C[C@H]54)nc4nc(OCC(F)(F)C(F)F)ccc4c3=O)c21 (atropisomer, axis not shown; (P)) [Example 27, N-((S)-1-((3P,3P)-3-(4-chloro-1-methyl-3-(methylsulfonamido)-1H-indazol-7-yl)-4-oxo-7-(2,2,3,3-tetrafluoropropoxy)-3,4-dihydropyrido[2,3-d]pyrimidin-2-yl)-2-(3,5-difluorophenyl)ethyl)-2-((3bS,4aR)-3-(difluoromethyl)-5,5-difluoro-3b,4,4a,5-tetrahydro-1H-cyclopropa[3,4]cyclopenta[1,2-c]pyrazol-1-yl)acetamide] | 22 | > 100000
9 | Cc1cc(C)nc(COc2ccc3c(=O)n(-c4ccc(Cl)c5c(NS(C)(=O)=O)nn(C)c45)c([C@H](Cc4cc(F)cc(F)c4)NC(=O)Cn4nc(C(F)F)c5c4C(F)(F)[C@@H]4C[C@H]54)nc3n2)n1 (atropisomer, axis not shown; (P)) [Example 6, N-((S)-1-((3P,3P)-3-(4-chloro-1-methyl-3-(methylsulfonamido)-1H-indazol-7-yl)-7-((4,6-dimethylpyrimidin-2-yl)methoxy)-4-oxo-3,4-dihydropyrido[2,3-d]pyrimidin-2-yl)-2-(3,5-difluorophenyl)ethyl)-2-((3bS,4aR)-3-(difluoromethyl)-5,5-difluoro-3b,4,4a,5-tetrahydro-1H-cyclopropa[3,4]cyclopenta[1,2-c]pyrazol-1-yl)acetamide] | 36 | > 500000
10 | Cn1nc(NS(C)(=O)=O)c2c(Cl)ccc(-n3c([C@H](Cc4cc(F)cc(F)c4)NC(=O)Cn4nc(C(F)F)c5c4C(F)(F)[C@@H]4C[C@H]54)nc4nc(OCCC5CC(F)(F)C5)ccc4c3=O)c21 (atropisomer, axis not shown; (P)) [Example 32, N-((S)-1-((3P,3P)-3-(4-chloro-1-methyl-3-(methylsulfonamido)-1H-indazol-7-yl)-7-(2-(3,3-difluorocyclobutyl)ethoxy)-4-oxo-3,4-dihydropyrido[2,3-d]pyrimidin-2-yl)-2-(3,5-difluorophenyl)ethyl)-2-((3bS,4aR)-3-(difluoromethyl)-5,5-difluoro-3b,4,4a,5-tetrahydro-1H-cyclopropa[3,4]cyclopenta[1,2-c]pyrazol-1-yl)acetamide] | – | > 100000
